Experimental data taken from patent US9586907B2, “Isothiocyanate compounds, pharmaceutical compositions, and uses thereof” (priority 2006, dated 2017).
Converted amounts (≈) assume the structure as drawn. Where two headings read alike, the source gives them in different places.

Assays:
Shigella sp., BK 12440 = experiment: MIC, Shigella sp., BK 12440; type: cell-based; conditions: Gram −, 24 hours of incubation
Shigella sp., BK 12441 = experiment: MIC, Shigella sp., BK 12441; type: cell-based; conditions: Gram −, 24 hours of incubation
[1] = test system: Bacillus subtilis BK11590; experiment: MIC, Bacillus subtilis BK11590; type: cell-based; conditions: Gram +, 24 hours of incubation
M. intracellularie = experiment: MIC, M. intracellularie; type: cell-based; conditions: M. intracellularie
M. avium = experiment: MIC, M. avium; type: cell-based; conditions: M. avium
M. scrofulaceum = experiment: MIC, M. scrofulaceum; type: cell-based; conditions: M. scrofulaceum
M. cansassi = experiment: MIC, M. cansassi; type: cell-based; conditions: M. cansassi
M. fortuitum = experiment: MIC, M. fortuitum; type: cell-based; conditions: M. fortuitum
M. tuberculosis W4 = experiment: MIC, M. tuberculosis W4; type: cell-based
Protocol: (§1) Next, several of the bifunctional ITC compounds were tested for their ability to inhibit the growth of some clinical isolates of Mycobacteria, the results of which are summarized in Table 3 below.

M. tuberculosis 210 = experiment: MIC, M. tuberculosis 210; type: cell-based
Protocol: as §1

M. tuberculosis W = experiment: MIC, M. tuberculosis W; type: cell-based
Protocol: as §1

M. tuberculosis H37Rv = experiment: MIC, M. tuberculosis H37Rv; type: cell-based
Protocol: as §1

M. tuberculosis CDC1551 = experiment: MIC, M. tuberculosis CDC1551; type: cell-based
Protocol: as §1

M. tuberculosis P = experiment: MIC, M. tuberculosis P; type: cell-based
Protocol: as §1

M. tuberculosis AB = experiment: MIC, M. tuberculosis AB; type: cell-based
Protocol: as §1

M. bovis BCG = experiment: microbe, parasite or virus in culture; type: cell-based
[2] = test system: MRSA (Staphylococcus aureus) BK12060; experiment: MIC, MRSA BK12060
[3] = test system: MRSA (Staphylococcus aureus) BK12064; experiment: MIC, MRSA BK12064
Escherichia coli K12 = experiment: MIC, Escherichia coli K12
Bacillus cereus 4342 = experiment: MIC, Bacillus cereus 4342
Escherichia coli BK12336 = experiment: MIC, Escherichia coli BK12336
[4] = test system: Enterococcus sp., BK11936; experiment: MIC, Enterococcus sp., BK11936
[5] = test system: Acinetobacter sp., BK12786; experiment: MIC, Acinetobacter sp., BK12786
[6] = test system: Acinetobacter sp., BK12787; experiment: MIC, Acinetobacter sp., BK12787
[7] = test system: Streptococcus sp., BK12233; experiment: MIC, Streptococcus sp., BK12233
[8] = test system: Streptococcus sp., BK12235; experiment: MIC, Streptococcus sp., BK12235
[9] = test system: Serattia marcescens BK12421; experiment: MIC, Serattia marcescens BK12421
[10] = test system: Serattia marcescens BK12426; experiment: MIC, Serattia marcescens BK12426
[11] = test system: Enterobacter cloacii BK12313; experiment: MIC, Enterobacter cloacii BK12313
[12] = test system: Enterobacter cloacii BK12315; experiment: MIC, Enterobacter cloacii BK12315
[13] = test system: Klebsiella pneumonii BK12260; experiment: MIC, Klebsiella pneumonii BK12260
[14] = test system: Klebsiella pneumonii BK12261; experiment: MIC, Klebsiella pneumonii BK12261
[15] = test system: Pseudomonas aeruginosa BK12347; experiment: MIC, Pseudomonas aeruginosa BK12347
[16] = test system: Pseudomonas aeruginosa BK12348; experiment: MIC, Pseudomonas aeruginosa BK12348
[17] = test system: Staphylococcus epidermidis BK12798; experiment: MIC, Staphylococcus epidermidis BK12798
[18] = test system: Staphylococcus epidermidis BK12799; experiment: MIC, Staphylococcus epidermidis BK12799
[19] = Mycobacterium tuberculosis, read-out: MIC
[20] = Staphylococcus aureus, MRSA, 24 h
[21] = MRSA BK12060, Gram +, 24 hours of incubation
[22] = MRSA BK12064, Gram +, 24 hours of incubation
[23] = Escherichia coli K12, Gram −, 24 hours of incubation
[24] = Bacillus cereus 4342, Gram +, 24 hours of incubation
[25] = Escherichia coli BK12336, Gram −, 24 hours of incubation
[26] = Enterococcus sp., BK11936, Gram +, 24 hours of incubation
[27] = Acinetobacter sp., BK12786, Gram −, 24 hours of incubation
[28] = Acinetobacter sp., BK12787, Gram −, 24 hours of incubation
[29] = Streptococcus sp., BK12233, Gram +, grown on Tryptic Soy agar medium, 24 hours
[30] = Streptococcus sp., BK12235, Gram +, grown on Tryptic Soy agar medium, 24 hours
[31] = Serattia marcescens BK12421, Gram −, 24 hours of incubation
[32] = Serattia marcescens BK12426, Gram −, 24 hours of incubation
[33] = Enterobacter cloacii BK12313, Gram −, 24 hours of incubation
[34] = Enterobacter cloacii BK12315, Gram −, 24 hours of incubation
[35] = Klebsiella pneumonii BK12260, Gram −, 24 hours of incubation
[36] = Klebsiella pneumonii BK12261, Gram −, 24 hours of incubation
[37] = Pseudomonas aeruginosa BK12347, Gram −, 24 hours of incubation
[38] = Pseudomonas aeruginosa BK12348, Gram −, 24 hours of incubation
[39] = Staphylococcus epidermidis BK12798, Gram +, 24 hours of incubation
[40] = Staphylococcus epidermidis BK12799, Gram +, 24 hours of incubation

SMILES: S=C=NCc1ccc(CN=C=S)cc1 [Compound 37]
- MIC (Shigella sp., BK 12440; read-out: MIC): 16 µg/mL (≈ 72.6 µM)
- MIC (Shigella sp., BK 12441; read-out: MIC): 16 µg/mL (≈ 72.6 µM)
- MIC ([1]; read-out: MIC): 4 µg/mL (≈ 18.2 µM)
- MIC (M. intracellularie; read-out: MIC): 32 µg/mL (≈ 145 µM)
- MIC (M. avium; Mycobacterium avium, read-out: MIC): 32 µg/mL (≈ 145 µM)
- MIC (M. scrofulaceum; Mycobacterium scrofulaceum, read-out: MIC): 16 µg/mL (≈ 72.6 µM)
- MIC (M. cansassi; read-out: MIC): 4 µg/mL (≈ 18.2 µM)
- MIC (M. fortuitum; Mycolicibacterium fortuitum, read-out: MIC): 32 µg/mL (≈ 145 µM)
- MIC (M. tuberculosis W4; [19]): 2 µg/mL (≈ 9.08 µM)
- MIC (M. tuberculosis 210; [19]): 2 µg/mL (≈ 9.08 µM)
- MIC (M. tuberculosis W; [19]): 1 µg/mL (≈ 4.54 µM)
- MIC (M. tuberculosis H37Rv; [19]): 2 µg/mL (≈ 9.08 µM)
- MIC (M. tuberculosis CDC1551; [19]): 4 µg/mL (≈ 18.2 µM)
- MIC (M. tuberculosis P; [19]): 2 µg/mL (≈ 9.08 µM)
- MIC (M. tuberculosis AB; [19]): 2 µg/mL (≈ 9.08 µM)
- MIC (M. bovis BCG; Mycobacterium tuberculosis variant bovis BCG, BCG): 2 µg/mL (≈ 9.08 µM)
- MIC [2, 20]: 8 µg/mL (≈ 36.3 µM)
- MIC [3, 20]: 4 µg/mL (≈ 18.2 µM)
- MIC (Escherichia coli K12; Escherichia coli, K12, 24 h): 16 µg/mL (≈ 72.6 µM)
- MIC (Bacillus cereus 4342; Bacillus cereus, 4342, 24 h): 2 µg/mL (≈ 9.08 µM)
- MIC (Escherichia coli BK12336; Escherichia coli, BK12336, 24 h): 8 to 16 µg/mL (≈ 36.3 to 72.6 µM)
- MIC ([4]; Enterococcus, 24 h): 16 µg/mL (≈ 72.6 µM)
- MIC ([5]; Acinetobacter, 24 h): > 64 µg/mL
- MIC ([6]; Acinetobacter, 24 h): > 64 µg/mL
- MIC ([7]; Streptococcus, 24 h): < 0.5 µg/mL
- MIC ([8]; Streptococcus, 24 h): < 0.5 µg/mL
- MIC ([9]; 24 h): 64 µg/mL (≈ 290 µM)
- MIC ([10]; 24 h): 64 µg/mL (≈ 290 µM)
- MIC ([11]; Enterobacter, BK12313, 24 h): > 64 µg/mL
- MIC ([12]; Enterobacter, BK12315, 24 h): > 64 µg/mL
- MIC ([13]; Klebsiella, BK12260, 24 h): > 64 µg/mL
- MIC ([14]; Klebsiella, BK12261, 24 h): > 64 µg/mL
- MIC ([15]; Pseudomonas aeruginosa, BK12347, 24 h): > 64 µg/mL
- MIC ([16]; Pseudomonas aeruginosa, BK12348, 24 h): > 64 µg/mL
- MIC ([17]; Staphylococcus epidermidis, BK12798, 24 h): 0.5 µg/mL (≈ 2.27 µM)
- MIC ([18]; Staphylococcus epidermidis, BK12799, 24 h): 0.5 µg/mL (≈ 2.27 µM)

SMILES: S=C=NCCCCCCCCN=C=S [Compound 42, S═C═N—(CH2)8—N═C═S]
- MIC (Shigella sp., BK 12440): >64 µg/mL
- MIC (Shigella sp., BK 12441): >64 µg/mL
- MIC [1]: 2 µg/mL (≈ 8.76 µM)
- MIC (M. intracellularie): 32 µg/mL (≈ 140 µM)
- MIC (M. avium): 32 µg/mL (≈ 140 µM)
- MIC (M. scrofulaceum): 32 µg/mL (≈ 140 µM)
- MIC (M. cansassi): 4 µg/mL (≈ 17.5 µM)
- MIC (M. fortuitum): 32 µg/mL (≈ 140 µM)
- MIC (M. tuberculosis W4): 4 µg/mL (≈ 17.5 µM)
- MIC (M. tuberculosis 210): 4 µg/mL (≈ 17.5 µM)
- MIC (M. tuberculosis W): 4 µg/mL (≈ 17.5 µM)
- MIC (M. tuberculosis H37Rv): 4 µg/mL (≈ 17.5 µM)
- MIC (M. tuberculosis CDC1551): 8 µg/mL (≈ 35 µM)
- MIC (M. tuberculosis P): 4 µg/mL (≈ 17.5 µM)
- MIC (M. tuberculosis AB): 4 µg/mL (≈ 17.5 µM)
- MIC (M. bovis BCG): 4 µg/mL (≈ 17.5 µM)
- MIC [2, 21]: 2 to 4 µg/mL
- MIC [3, 22]: 4 µg/mL (≈ 17.5 µM)
- MIC (Escherichia coli K12; [23]): >64 µg/mL
- MIC (Bacillus cereus 4342; [24]): 2 µg/mL (≈ 8.76 µM)
- MIC (Escherichia coli BK12336; [25]): >64 µg/mL
- MIC [4, 26]: 8 µg/mL (≈ 35 µM)
- MIC [5, 27]: >64 µg/mL
- MIC [6, 28]: >64 µg/mL
- MIC [7, 29]: 1 to 2 µg/mL
- MIC [8, 30]: 2 µg/mL (≈ 8.76 µM)
- MIC [9, 31]: 64 µg/mL (≈ 280 µM)
- MIC [10, 32]: 64 µg/mL (≈ 280 µM)
- MIC [11, 33]: 64 µg/mL (≈ 280 µM)
- MIC [12, 34]: 64 µg/mL (≈ 280 µM)
- MIC [13, 35]: >64 µg/mL
- MIC [14, 36]: >64 µg/mL
- MIC [15, 37]: >64 µg/mL
- MIC [16, 38]: >64 µg/mL
- MIC [17, 39]: 2 µg/mL (≈ 8.76 µM)
- MIC [18, 40]: 2 µg/mL (≈ 8.76 µM)

SMILES: S=C=NCCCCCCCN=C=S [Compound 41, S═C═N—(CH2)7—N═C═S]
- MIC (Shigella sp., BK 12440): 64 µg/mL (≈ 299 µM)
- MIC (Shigella sp., BK 12441): 64 µg/mL (≈ 299 µM)
- MIC [1]: 2 µg/mL (≈ 9.33 µM)
- MIC (M. intracellularie): 32 µg/mL (≈ 149 µM)
- MIC (M. avium): 32 µg/mL (≈ 149 µM)
- MIC (M. scrofulaceum): 32 µg/mL (≈ 149 µM)
- MIC (M. cansassi): 8 µg/mL (≈ 37.3 µM)
- MIC (M. fortuitum): 32 µg/mL (≈ 149 µM)
- MIC (M. tuberculosis W4): 2 µg/mL (≈ 9.33 µM)
- MIC (M. tuberculosis 210): 4 µg/mL (≈ 18.7 µM)
- MIC (M. tuberculosis W): 2 µg/mL (≈ 9.33 µM)
- MIC (M. tuberculosis H37Rv): 2 µg/mL (≈ 9.33 µM)
- MIC (M. tuberculosis CDC1551): 2 µg/mL (≈ 9.33 µM)
- MIC (M. tuberculosis P): 4 µg/mL (≈ 18.7 µM)
- MIC (M. tuberculosis AB): 2 µg/mL (≈ 9.33 µM)
- MIC (M. bovis BCG): 2 µg/mL (≈ 9.33 µM)
- MIC [2, 21]: 4 µg/mL (≈ 18.7 µM)
- MIC [3, 22]: 4 µg/mL (≈ 18.7 µM)
- MIC (Escherichia coli K12; [23]): >64 µg/mL
- MIC (Bacillus cereus 4342; [24]): 2 µg/mL (≈ 9.33 µM)
- MIC (Escherichia coli BK12336; [25]): >64 µg/mL
- MIC [4, 26]: 8 µg/mL (≈ 37.3 µM)
- MIC [5, 27]: 32 µg/mL (≈ 149 µM)
- MIC [6, 28]: 32 µg/mL (≈ 149 µM)
- MIC [7, 29]: 1 to 2 µg/mL
- MIC [8, 30]: 1 to 2 µg/mL
- MIC [9, 31]: >64 µg/mL
- MIC [10, 32]: >64 µg/mL
- MIC [11, 33]: >64 µg/mL
- MIC [12, 34]: >64 µg/mL
- MIC [13, 35]: >64 µg/mL
- MIC [14, 36]: >64 µg/mL
- MIC [15, 37]: 64 µg/mL (≈ 299 µM)
- MIC [16, 38]: 64 µg/mL (≈ 299 µM)
- MIC [17, 39]: 4 µg/mL (≈ 18.7 µM)
- MIC [18, 40]: 1 µg/mL (≈ 4.67 µM)
